Consider three substances from patent US7943576B2, “Methods of using enterostatin as inhibitor of angiogenesis” (priority 2005, dated 2011).

“Also recorded” adds a separate entry of the source. Where two headings read alike, the source gives them in different places.

The conditions of data set [1]: cited from earlier work; for duration of action on feeding: single injection.
The next data set concerns adipose tissue. Put plainly: in vitro human adipose tissue angiogenesis assay (fat fragments in fibrin clot). The data set is classed as cell-based. On the procedure:
Tissue Preparation: Discarded fat from human surgery was cut into fragments approximately 1 mm thick and 2 mm in diameter. These fat fragments were placed in 96-well plates loaded with human thrombin solution (0.05 IU in 40 μL double distilled water/well). The fat fragments were placed in the prepared 96-well plates and covered with 100 μl clotting media. The clotting media consisted of fibrinogen (3 mg/ml) (Sigma Chemical Co., St. Louis, Mo.) and ε-amino caproic acid (0.5%) (Sigma Chemical Co., St. Louis, Mo.) in human placental vein angiogenesis model (HPVAM) media. […] The mixture was allowed to clot by incubation in 6% CO2, 94% air at 37° C. in a humidified incubator. After the media had gelled overnight, the fat-containing clot was supplemented with 1 mL HPVAM media containing 20% fetal bovine serum (GibcoBRL, Gaithersburg, Md.). The total volume of each well was 2 mL.
Angiogenic Evaluation: All wells were evaluated for angiogenic sprouting by examination at 40× and 200× magnification by an unbiased observer using an inverted microscope. Angiogenesis was defined by two criteria. First, the number of wells (as a percentage of the total plated) that developed new vessel growth was termed initiation. This was defined by the presence of at least three angiogenic sprouts of approximately 0.5 mm in length growing from the periphery of the fat tissue. The degree of angiogenic response was assessed using a semi-quantitative visual rating scale as described in E. A. Woltering et al., “Development of a novel in vitro human tissue-based angiogenesis assay to evaluate the effect of antiangiogenic drugs,” Ann. Surg., vol. […] The tissue was visually divided into four quadrants. Each quadrant was given a numeric score from 0-4 based on the length and density of the new vessel growth, and on the percentage of the quadrant's circumference involved with the angiogenic response. Numeric results from the four quadrants were summed and expressed as an angiogenic index (AI, 1-16). This rating scale has been validated using multiple independent observers as described in C. Hornick et al., “Inhibition of angiogenic initiation and disruption of newly established human vascular networks by juice of Morinda citrifola (Noni),” Angiogenesis, vol.

In a further data set the test system is GT1-7 cells. Put plainly: microarray gene analysis, GT1-7 cells. The data set is classed as cell-based. The note with it: GT1-7 cells (counted together with HepG2); 60 minutes; 0.01, 0.1 and 1.0 uM; regulated by at least 1.7×. On the procedure: (§1) HepG2 cells (a human liver carcinoma cell line) and GT1-7 cells (a neuronal cell line) were cultured by standard procedures and incubated with varying concentrations of enterostatin for 60 minutes. At the completion of the incubation period, cells were lysed, recovered from the plates, and extracted for RNA using TRI REAGENT® (Molecular Research Center, Inc, Cincinnati, Ohio). The RNA was then purified using the RNeasy® Mini Kit (Qiagen, Valencia, Calif.). RNA quality was visually assessed using agarose gel electrophoresis and quantified by UV spectrophotometric analysis (A260 and A280 nm). All RNA had A260/A280 ratios greater than 1.75 and less than 2.10. RNA integrity was checked using an RNA 6000 nano lab chip kit (Agilent Technologies, Foster City, Calif.). […]
(§2) Slides were scanned using a GSI Lumonics ScanArray 5000 laser scanner (Perkin Elmer Life Sciences, Inc., Boston, Mass.) at a relatively low and a relatively high laser intensity and expression data was analyzed using the QuantArray V3.0 software package (Perkin Elmer Life Sciences, Inc.). […]

A further data set concerns galanin receptors. The conditions noted are these: cited from earlier work.
The conditions of data set [2]: occurring mainly into lymphatic system; cited from earlier work.
The target of data set [3] is T1, cholecystokinin A receptors (Homo sapiens, UniProt P32238).
T1 sequence (P32238 1-428): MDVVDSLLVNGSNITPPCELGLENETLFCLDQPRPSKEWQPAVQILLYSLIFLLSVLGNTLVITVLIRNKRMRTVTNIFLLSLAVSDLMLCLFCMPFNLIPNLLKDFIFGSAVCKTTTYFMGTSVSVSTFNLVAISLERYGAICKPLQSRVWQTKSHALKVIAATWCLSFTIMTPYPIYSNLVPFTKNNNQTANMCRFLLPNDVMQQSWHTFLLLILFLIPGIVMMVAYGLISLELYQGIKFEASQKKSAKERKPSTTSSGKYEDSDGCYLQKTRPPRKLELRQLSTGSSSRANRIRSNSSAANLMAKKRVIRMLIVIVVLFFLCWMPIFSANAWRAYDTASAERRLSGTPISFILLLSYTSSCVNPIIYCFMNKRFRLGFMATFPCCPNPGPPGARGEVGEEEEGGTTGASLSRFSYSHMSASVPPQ
The note with it: cited from earlier work.

Another data set has as its system islet cells. The conditions noted are these: cited from earlier work.
The target in the next data set is kappa-opioid receptors (Homo sapiens, UniProt P41145). The conditions noted are these: cited from earlier work.
Chain of kappa-opioid receptors (P41145 whole entry): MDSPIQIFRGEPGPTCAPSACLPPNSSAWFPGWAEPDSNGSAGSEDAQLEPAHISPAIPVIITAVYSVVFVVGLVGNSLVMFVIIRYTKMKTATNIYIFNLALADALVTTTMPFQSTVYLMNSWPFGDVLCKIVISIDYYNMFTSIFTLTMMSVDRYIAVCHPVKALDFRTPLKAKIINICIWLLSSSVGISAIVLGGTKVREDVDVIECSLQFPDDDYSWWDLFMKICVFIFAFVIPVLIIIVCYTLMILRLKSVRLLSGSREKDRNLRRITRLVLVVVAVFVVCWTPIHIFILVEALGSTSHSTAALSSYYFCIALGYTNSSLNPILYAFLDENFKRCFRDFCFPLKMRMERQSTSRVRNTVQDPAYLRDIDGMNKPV
Data set [4] deals with T2, Neuropeptide Y1 receptors (Homo sapiens, UniProt P25929).
T2 sequence (P25929 1-384): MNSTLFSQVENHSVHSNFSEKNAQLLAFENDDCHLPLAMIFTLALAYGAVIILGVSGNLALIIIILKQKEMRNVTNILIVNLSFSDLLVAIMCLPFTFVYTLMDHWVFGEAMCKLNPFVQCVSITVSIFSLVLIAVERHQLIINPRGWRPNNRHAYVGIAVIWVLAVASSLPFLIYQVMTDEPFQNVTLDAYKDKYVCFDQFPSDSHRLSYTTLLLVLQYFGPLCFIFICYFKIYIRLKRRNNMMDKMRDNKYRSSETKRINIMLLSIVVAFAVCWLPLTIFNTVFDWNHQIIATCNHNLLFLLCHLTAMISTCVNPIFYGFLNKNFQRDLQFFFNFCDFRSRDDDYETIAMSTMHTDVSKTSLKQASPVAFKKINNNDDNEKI
The conditions noted are these: cited from earlier work.

For data set [5] the following is noted: low affinity binding, brain membrane preparation; cited from earlier work.
The test system of another data set is umbilical veins. The experiment in a line: human umbilical vein angiogenesis model. It is filed as cell-based. From the text: In addition, another angiogenesis model was tried, the human umbilical vein model as described by Woltering et al. (61). This model uses discarded umbilical veins to assay the effect of various compounds on angiogenesis.
Data set [6] deals with beta subunit of ATP synthase (Homo sapiens, UniProt P06576). The note with it: cited from earlier work.
Chain of beta subunit of ATP synthase (P06576 48-529): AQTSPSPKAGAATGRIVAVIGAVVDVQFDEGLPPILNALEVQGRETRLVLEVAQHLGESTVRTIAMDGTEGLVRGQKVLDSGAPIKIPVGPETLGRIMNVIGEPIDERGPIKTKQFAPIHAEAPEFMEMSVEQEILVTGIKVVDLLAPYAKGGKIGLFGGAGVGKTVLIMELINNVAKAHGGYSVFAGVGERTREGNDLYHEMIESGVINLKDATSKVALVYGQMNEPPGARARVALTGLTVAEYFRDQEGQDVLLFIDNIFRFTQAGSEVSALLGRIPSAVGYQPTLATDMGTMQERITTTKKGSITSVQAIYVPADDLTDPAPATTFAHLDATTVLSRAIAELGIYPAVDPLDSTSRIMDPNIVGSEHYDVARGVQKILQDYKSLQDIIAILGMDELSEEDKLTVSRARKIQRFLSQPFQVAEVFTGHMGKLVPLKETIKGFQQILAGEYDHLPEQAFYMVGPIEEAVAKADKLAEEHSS
For data set [7] the following is noted: humans, intravenous injection; cited from earlier work.
For data set [8], the system named is SK-N-MC neuroepithelioma cells. The note with it: low affinity binding; cited from earlier work.
A further data set deals with HepG2 cells. Put plainly: microarray gene analysis, HepG2 cells. It is filed as cell-based, human. The conditions noted are these: HepG2 cells (counted together with GT1-7); 60 minutes; 0.01, 0.1 and 1.0 uM; regulated by at least 1.7×. Here is the method:
as §1, §2

Setting [9] is: rats adapted to three-choice macronutrient diet.

With APGP-ornithine [reference compound], in data set [1] (rat, in vivo), the “food intake in rats” value is “shown to affect food intake in rats”. In addition, in the data set with adipose tissue, the “inhibitory effect on the angiogenic index (FIG. 4 legend)” value is “lack of an inhibitory effect”. Also, in the data set with adipose tissue (concentrations from 10^−6 to 10^−9 M), the “inhibition of angiogenesis (FIG. 4)” value is “none of these concentrations of the metabolite inhibited angiogenesis”.
For orientation: Kd means the constant that tells how readily two partners part at equilibrium. On to “enterostatin (VPDPR; printed: Val-Pro-Asp-Pro-Arg) [aminoterminal pentapeptide of procolipase released when procolipase is converted into colipase]”, for which the “number of genes related to the angiogenesis pathway upregulated or downregulated” value in the data set on GT1-7 cells and with HepG2 cells was 22 genes throughout. Moreover, the “binding to galanin receptors” value in the data set on galanin receptors is recorded as “not to bind”. Further, the “absorption across the intestine” value in data set [2] was “limited and slow”. Also, the “binding to cholecystokinin A receptors” value in data set [3] was “not to bind”. Also, the “insulin secretion from islets” value in the data set on islet cells (10^−9 to 10^−5 M, 16.7 mM glucose, dose-dependent) is “inhibited insulin secretion from islets”. The “insulin secretion from isolated pancreatic islets” value in the data set with islet cells (doses of 10^−10 to 10^−6M) was “inhibit insulin secretion”. Also, the “binding to kappa-opioid receptors” value in the data set with kappa-opioid receptors is on record as “not to bind”. Besides, the “binding to Neuropeptide Y1 receptors” value in data set [4] was “not to bind”. Moreover, the Kd is 230 nM in data set [5] and 40 nM in [8]. In the data set on umbilical veins, the inhibition of angiogenesis entry was “effective in inhibiting angiogenesis”. Besides, the “daily intake of dietary fat” value in data set [1] (chronic icv administration from mini-osmotic pumps, single-choice HF or two-choice HF/LF diet) was “attenuated the daily intake of dietary fat”. The “carbohydrate or protein intake” value in [1] (setting [9]) is “no effect on either carbohydrate or protein intake”. Besides, the “intake of fat macronutrient” value in [1] (setting [9]) is “reduced intake of the fat macronutrient”. The figures for the “duration of action on feeding” value in data set [1] (rats adapted to a six-hour feeding schedule) and in data set [1] (rats adapted to ad-libitum feeding) were “lasting up to six hours” and “up to 24 hours”, respectively. Also, in data set [1] (two-choice high-fat and low-fat diet paradigm), the “intake of HF vs LF diet” value is given as “reduced only intake of the HF diet”. Moreover, in data set [6], the “binding to purified beta subunit of ATP synthase” value is reported as “bind to this purified protein; also recorded: binds to the beta subunit of ATP synthase”. Moreover, in data set [7], the food intake entry is “not found to reduce food intake”. The “subjective feeling of hunger” value in [7] was “reduce the subjective feeling of hunger”. Also, in the data set with adipose tissue, the “concentration least inhibitory of angiogenesis as measured by the angiogenic index (FIG. 3)” value was 10^−10 M. The “new blood vessels (photomicrograph, FIG. 1B vs control FIG. 1A)” value in the data set on adipose tissue (10^−9 M enterostatin) is given as “fewer new blood vessels than the control tissue”. Besides, in the data set on adipose tissue (concentrations from about 10^−6 to about 10^−9 M), the angiogenic response entry is on record as “effectively blocked the angiogenic response”. The “concentration giving the greatest inhibition of angiogenic index (FIG. 2)” value with adipose tissue (day 15, U-shaped dose response curve) was 10^−9 M. Besides, the “effect on the angiogenic index (FIG. 2)” value with adipose tissue (range of 10^−8 to 10^−6 M) is listed as “dose dependent inhibition”.
Take β-casomorphin1-7 [reference compound]: the “binding to purified beta subunit of ATP synthase” value in data set [6] is listed as “bind to this purified protein”. The “inhibitory effect on the angiogenic index (FIG. 4 legend)” value with adipose tissue is on record as “lack of an inhibitory effect”. The “effect on angiogenesis (FIG. 4)” value in the data set with adipose tissue (concentrations of 10^−6 and 10^−7 M) is reported as “no effect on angiogenesis”.
